Converted amounts (≈) assume the structure as drawn. Read-outs that look alike come from different tables or passages of the source.
Columns and labels:
T. cruzi epimastigotes = test: Trypanocidal activity on T. cruzi epimastigotes (CL-B5 lacZ, CPRG); assay type: cell-based, Trypanosoma cruzi clone CL-B5; settings: for Selectivity Index L929/ T. cruzi: SI = CC50 L929/IC50 parasites; for IC50: Trypanosoma cruzi, 72 h
Description: For in vitro studies of T. cruzi. the clone CL-B5 was used. Parasites were stably transfected with the Escherichia coli β-galactosidase gene (lacZ), provided by Facultad de Farmacia (Universidad Complutense de Madrid). Epimastigotes were grown at 28 °C in liver infusion tryptose broth (Difco, Detroit, MI, USA) with 10% fetal bovine serum (FBS) (Gibco, Carlsbad, CA, USA), penicillin (Ern S.A., Barcelona, Spain), and streptomycin (Reig Jofré S.A., Barcelona. Spain), as described previously, and harvested during the exponential growth phase. Briefly, the screening assay was performed in 96-well microplates (Sarstedt, Inc., Newton, NC, USA) with cultures that had not reached the stationary phase. Briefly, epimastigotes were seeded at 2 × 10^5 parasites/mL in 200 µL growth media. The plates were then incubated with the respective compounds at 28 °C for 72 h. Afterwards, 50 µL of CPRG solution was added, resulting in a final concentration of 200 µM. The plates were incubated at 37 °C for an additional 4 h and then read at 595 nm. Each concentration was tested in triplicate. […] These values were calculated from the sigmoidal dose–response curve adjustment using the statistical software program Graph-Pad Prims 3.0. Benznidazole was used as a reference drug.

[1] = Cytotoxicity on L929 fibroblasts (resazurin); settings: mouse
[2] = system: M. tuberculosis CIPTIR -D152; test: MIC broth microdilution; assay type: cell-based; settings: Mycobacterium tuberculosis
[3] = system: M. tuberculosis ATCC H37Rv; test: MIC broth microdilution; assay type: cell-based; settings: Mycobacterium tuberculosis, H37RV
M. fortuitum LIID-01 = test: MIC broth microdilution; assay type: cell-based; settings: Mycolicibacterium fortuitum, LIID01, 72 h
P. aeruginosa (G−) = test: MIC broth microdilution; assay type: cell-based; settings: Pseudomonas aeruginosa, 24 h
L. monocytogenes (G+) = test: MIC broth microdilution; assay type: cell-based; settings: Listeria monocytogenes, 24 h
B. cereus (G+) = test: MIC broth microdilution; assay type: cell-based; settings: Bacillus cereus, 24 h
[4] = system: M. intracellulare LIID-01; test: MIC broth microdilution; assay type: cell-based; settings: Mycobacterium intracellulare, LIID01
L. innocua (G+) = test: MIC broth microdilution; assay type: cell-based; settings: Listeria innocua, 24 h
[5] = system: Leishmania brazilensis (L. b) promastigotes; test: Leishmanicidal activity on L. braziliensis promastigotes (resazurin); settings: for IC50: Leishmania, 48 h, read-out: Leishmanicidal Activity IC50—L. b; for Selectivity Index L929/ L. b: SI = CC50 L929/IC50 parasites
Description: (§1) The culture of L. braziliensis (MHOM/CO/88/UA301) and L. infantum (MCAN/ES/92/BCN83) was obtained from the Facultad de Farmacia, Universidad Complutense de Madrid, Spain.
(§2) The maintenance of the strains, the form of cultivation, and the isolation of shape promastigota followed the procedures described by Roldós et al. [8]. The promastigotes were grown at 22 °C in Schneider’s Drosophila medium supplemented with 20% FBS. The assay was performed using a modification of a previous method [47]. Promastigotes (2 × 10^6 parasites/well) were cultured in 96-well plastic plates. Compounds were dissolved in dimethylsulfoxide (DMSO). Different dilutions of the compounds up to a 200 µL final volume were added. After 48 h at 26 °C, 20 µL of 2 mM resazurin solution was added and the oxidation–reduction was quantified at 570 and 600 nm. The solution of resazurin was prepared at 2.5 mM in phosphate-buffered solution (PBS), pH 7.4, and filtered through 0.22 µM prior to use. All tests were carried out in triplicate. Resazurin sodium salt was obtained from Sigma–Aldrich (St. Louis, MO, USA) and stored at 4 °C protected from light. The efficacy of each compound was estimated by calculating the IC50 values.

[6] = system: M. intracellulare LIID-02; test: MIC broth microdilution; assay type: cell-based; settings: Mycobacterium intracellulare, LIID02
M. abscessus LIID-03 = test: MIC broth microdilution; assay type: cell-based; settings: Mycobacteroides abscessus, LIID03, 72 h
M. abscessus LIID-02 = test: MIC broth microdilution; assay type: cell-based; settings: Mycobacteroides abscessus, LIID02, 72 h
S. typhi (G−) = test: MIC broth microdilution; assay type: cell-based; settings: Salmonella enterica, 24 h
S. aureus (G+) = test: MIC broth microdilution; assay type: cell-based; settings: Staphylococcus aureus, 24 h
M. luteus (G+) = test: MIC broth microdilution; assay type: cell-based; settings: Micrococcus luteus, 24 h
E. coli (G−) = test: MIC broth microdilution; assay type: cell-based; settings: Escherichia coli, 24 h
M. abscessus LIID-01 = test: MIC broth microdilution; assay type: cell-based; settings: Mycobacteroides abscessus, LIID01, 72 h
[7] = system: M. tuberculosis CIPTIR-F296; test: MIC broth microdilution; assay type: cell-based; settings: Mycobacterium tuberculosis, CIPTIRF296
E. faecalis (G+) = test: MIC broth microdilution; assay type: cell-based; settings: Enterococcus faecalis, 24 h
[8] = system: Leishmania infantum (L. i) promastigotes; test: Leishmanicidal activity on L. infantum promastigotes (resazurin); settings: for IC50: Leishmania infantum, 48 h, read-out: Leishmanicidal Activity IC50—L. i; for Selectivity Index L929/ L. i: SI = CC50 L929/IC50 parasites
Description: as §1, §2

[9] = epimastigotes, read-out: Trypanocidal Activity IC50 T. cruzi

SMILES | Selectivity Index L929/ T. cruzi (T. cruzi epimastigotes) | IC50 (T. cruzi epimastigotes; [9]) [µM] | CC50 at 24 h [1] [µM] | IC50 [5] [µM] | IC50 [8] [µM] | also measured
O=C(Cn1ccnc1[N+](=O)[O-])NCc1ccccc1 [Benznidazole, reference compound] | 14.0 | 54.7 | 769 |  |  | 
C#CCCC(=O)Oc1c2c(c3ccccc3c1OC(=O)CCC#C)OC(C)(C)C=C2 [Compound 1a] | 6 | 19.2 | 106 | 10.7 | 24.9 | MIC [2]: > 200 µg/mL; MIC [3]: > 200 µg/mL; MIC (M. fortuitum LIID-01): > 200 µg/mL; MIC (P. aeruginosa (G−)): > 200 µg/mL; MIC (L. monocytogenes (G+)): > 200 µg/mL; MIC (B. cereus (G+)): > 200 µg/mL; MIC [4]: 50 µg/mL (≈ 124 µM); MIC (L. innocua (G+)): > 200 µg/mL; Selectivity Index L929/ L. b [5]: 10; MIC [6]: > 200 µg/mL; MIC (M. abscessus LIID-03): > 200 µg/mL; MIC (M. abscessus LIID-02): > 200 µg/mL; MIC (S. typhi (G−)): > 200 µg/mL; MIC (S. aureus (G+)): 100 µg/mL (≈ 248 µM); MIC (M. luteus (G+)): > 200 µg/mL; MIC (E. coli (G−)): > 200 µg/mL; MIC (M. abscessus LIID-01): > 200 µg/mL; MIC [7]: > 200 µg/mL; MIC (E. faecalis (G+)): > 200 µg/mL; Selectivity Index L929/ L. i [8]: 4
C#CCCCC(=O)Oc1c2c(c3ccccc3c1OC(=O)CCCC#C)OC(C)(C)C=C2 [Compound 1b] | 3 | 37.3 | 128 | 6.7 | 30.5 | Selectivity Index L929/ L. b [5]: 19; Selectivity Index L929/ L. i [8]: 4
CC1(C)C=Cc2c(OC(=O)CCc3cn(-c4ccccc4)nn3)c(OC(=O)CCc3cn(-c4ccccc4)nn3)c3ccccc3c2O1 [Compound 2a] | >4 | 68.7 | > 256 | > 256 | > 256 | 
COc1ccc(-n2cc(CCC(=O)Oc3c4c(c5ccccc5c3OC(=O)CCc3cn(-c5ccc(OC)cc5)nn3)OC(C)(C)C=C4)nn2)cc1 [Compound 2b] | >1 | 204 | > 256 | > 256 | > 256 | 
CC1(C)C=Cc2c(OC(=O)CCc3cn(-c4ccc(Cl)cc4)nn3)c(OC(=O)CCc3cn(-c4ccc(Cl)cc4)nn3)c3ccccc3c2O1 [Compound 2c] |  | > 256 | > 256 | > 256 | > 256 | 
Cc1ccc(-n2cc(CCC(=O)Oc3c4c(c5ccccc5c3OC(=O)CCc3cn(-c5ccc(C)cc5)nn3)OC(C)(C)C=C4)nn2)cc1 [Compound 2d] |  | > 256 | > 256 | > 256 | > 256 | 
CC(=O)O[C@@H]1[C@@H](OC(C)=O)[C@H](OC(C)=O)CO[C@H]1n1cc(CCC(=O)Oc2c3c(c4ccccc4c2OC(=O)CCc2cn([C@@H]4OC[C@@H](OC(C)=O)[C@H](OC(C)=O)[C@H]4OC(C)=O)nn2)OC(C)(C)C=C3)nn1 [Compound 2e] |  | > 256 | > 256 | > 256 | > 256 | 
CC1(C)C=Cc2c(OC(=O)CCc3cn(-c4cccc(Cl)c4)nn3)c(OC(=O)CCc3cn(-c4cccc(Cl)c4)nn3)c3ccccc3c2O1 [Compound 2g] |  |  | > 384 | > 256 | > 256 | IC50 (T. cruzi epimastigotes; read-out: Trypanocidal Activity IC50 T. cruzi, epimastigotes, 72 h): > 256 µM
CC1(C)C=Cc2c(OC(=O)CCc3cn(Cc4ccc([N+](=O)[O-])cc4)nn3)c(OC(=O)CCc3cn(Cc4ccc([N+](=O)[O-])cc4)nn3)c3ccccc3c2O1 [Compound 2h] |  | > 256 | > 256 | > 256 | > 256 | 
CC1(C)C=Cc2c(OC(=O)CCc3cn(Cc4ccc(Br)cc4)nn3)c(OC(=O)CCc3cn(Cc4ccc(Br)cc4)nn3)c3ccccc3c2O1 [Compound 2i] |  | > 256 | > 256 | > 256 | > 256 | 

— PMC11510191, “Exploring Benzo[h]chromene Derivatives as Agents against Protozoal and Mycobacterial Infections” (Pharmaceuticals, 2024)
